# According to patent US8765953B2, “Compounds and methods for the treatment of pain and other diseases” (Aquilus Pharmaceuticals, Inc., priority 2008, dated 2014):
# How the values were obtained:
# [1] = tested on: L5 spinal nerve ligation (SNL) neuropathic pain model; conditions: in vivo; cited from earlier work
# mechanical nociception = conditions: in vivo; cited from earlier work
# [2] = In-vitro mouse microsomal stability; format: in vitro ADME; conditions: mouse microsomes, 1 microMolar compound, at T = 60 minutes
# Description: Human and mouse microsomal stability was determined for select compounds following the method of Houston (Houston, J. B; Biochem. Pharmacol. 47, (1994),1469).
# 1 μM concentration of compound and separate human and mouse microsomes (0.3 mg/mL, BD bioscience) were used in the in-vitro assay. To ensure proper energy supply for microsomal degradation of compound, an energy regenerating system comprised of 100 mM potassium phosphate, 2 mM NADPH, 3 mM MgCl2, pH=7.4. and the microsomal protein is added to each sample and the resulting suspension is then incubated in duplicate for 60 min at 37° C. in a rotary shaker. A control is run for each test agent in duplicate omitting NADPH to detect NADPH-free degradation. At T=0 and T=60 min., an aliquot is removed from each experimental and control reaction and then mixed with an equal volume of ice-cold Stop Solution (consisting of 0.3% acetic acid in acetonitrile containing haloperidol and diclofenac as internal standards). Stopped reactions are then incubated for at least ten minutes at −20° C., and an additional volume of water is then added. The samples are then centrifuged to remove precipitated protein, and the supernatants are then analyzed by LC-MS/MS to determine the percentage of compound remaining. The LC-MS/MS system used was an Agilent 6410 mass spectrometer coupled with an Agilent 1200 HPLC and a CTC PAL chilled autosampler, all controlled by MassHunter software (Agilent), or an ABI2000 mass spectrometer coupled with an Agilent 1100 HPLC and a CTC PAL chilled autosampler, all controlled by Analyst software (ABI). After separation on a C18 reverse phase HPLC column (Agilent, Waters, or equivalent) using an acetonitrile-water gradient system, peaks were analyzed by mass spectrometry (MS) using ESI ionization in MRM mode.
# [3] = tested on: spinal nerve ligation (SNL) mouse model; test: Intrathecal (i.t.) SNL-mouse model of neuropathic pain, von Frey mechanical allodynia; format: in vivo, FVB male mice
# Source text: (§1) To measure the neuropathic pain inhibiting affects of the MMP inhibitors of the present invention, the spinal nerve ligation (SNL) mouse model was run on a select number of compounds. This model which began with the work of Bennet and coworkers (Bennet, G. J. et al. Pain, 33, (1988), 87-107) and was optimized by Kim and Chung (Kim, S. H.; Chung, J. M. Pain, 50, (1992), 355-363) entails first, under magnification, the removal of one-third of the transverse process and then identifying and then dissecting free the L5 spinal nerve from the adjacent L4 spinal nerve in the mouse. The L5 spinal nerve is then tightly ligated using 6.0 silk suture. The nerve injury leads to hyperalgesia which manifests itself by enhanced responses to mechanical, heat and/or cooling stimuli. In this case, mechanical hyperalgesia is tested via Von Frey monofilaments in which filaments of varying thicknesses and bending force are individually applied to the plantar surface of the foot of the mouse. The threshold force necessary for paw withdrawal decreases dramatically after the nerve surgery. Potent pain inhibitors will reverse this affect resulting in greater force needing to be applied to cause the rodent paw to withdrawal.
# Following preoperative baseline (Day −2) paw threshold measurement, FVB male mice were subjected to SNL injury (Day −1). The next day (Day 0) after SNL surgery, the animals were tested for post-operative baseline threshold measurements for mechanical allodynia; and the animals were then randomly assigned to one of 3 treatment groups (see Table 9). Over the course of the study, paw withdrawal threshold of these animals was measured in response to mechanical stimulation using the von Frey Monofilament Test.
# To avoid systemic effects of the MMP inhibitors, the MMP inhibitors of the present invention were delivered into the cerebral spinal fluid (CSF) space around lumbosacral spinal cord via intrathecal (i.t.) administration, with the idea of targeting MMPs in the DRG, spinal cord, and spinal CSF. Intrathecal MMP inhibitor administration could then target not only spinal cord cells but also DRG cells. Each intrathecal (i.t.) injection was carried out according to the technique of Hylden and Wilcox (Hylden J L, Wilcox G L. Eur. J. Pharmacol., 67, (1980), 313-6) 5.2 mg of each of the MMP inhibitors were first dissolved in 140 microliters of DMSO and then put into 1260 microliters of 0.5% hydroxypropyl cellulose (HPC) in water to make a fine suspension composed of compound in 10% DMSO-0.5% hydroxypropyl cellulose. 10 microliters of the mixture was injected into the intrathecal space of male FVB mice (weighing 22-25 grams each and obtained from the Jackson Laboratories, Bar Harbor, Me.), by lumbar puncture in a volume of 10 μl/mouse using a Hamilton microsyringe via a 30 gauge needle inserted between lumbar vertebrae 5 and 6. In brief, each animal was held firmly by the pelvic girdle in one hand, while the needle was inserted into the tissue on the right side of the L5 or L6 spinous process. The needle was moved forward and slipped into the groove between the spinous process and transverse process and gently moved forward to the intervertebral space at ˜10° angle. As the needle was inserted (˜0.5 cm) within the vertebral column a tail flick was evident, and the solution was then injected.
# Tactile Allodynia Test. Mechanical allodynia was measured using the calibrated von Frey filaments (Semmes-Weinstein monofilaments; Stoelting, Wood Dale, Ill., U.S.A.). The plantar surface of the left injured paw of each animal was tested as described by Chaplan et al. (Journal of Neuroscience Methods, 53, (1994), 55-63). The Fifty percent paw withdrawal threshold response was determined by sequentially increasing or decreasing the stimulus strength according to the “up-down method” of Dixon (Annual Review Pharmacology Toxicology, 20, (1980), 441-462). […]
# [4] = tested on: spinal nerve ligation (SNL) mouse model; test: Intraperitoneal (i.p.) SNL-mouse model of neuropathic pain, von Frey mechanical allodynia; format: in vivo
# Source text: as §1
# Tactile Allodynia Test. Mechanical allodynia was measured using the calibrated von Frey filaments (Semmes-Weinstein monofilaments; Stoelting, Wood Dale, Ill., U.S.A.). The plantar surface of the left injured paw of each animal was tested as described by Chaplan et al. (Journal of Neuroscience Methods, 53, (1994), 55-63). The Fifty percent paw withdrawal threshold response was determined by sequentially increasing or decreasing the stimulus strength according to the “up-down method” of Dixon (Annual Review Pharmacology Toxicology, 20, (1980), 441-462). For mice, […] von Frey filaments were used, with approximately equal logarithmic incremental bending forces (von Frey number: 1.65, 2.36, 2.44, 2.83, 3.22, 3.61, 3.84, 4.08, and 4.17; equivalent to 0.005, 0.02, 0.03, 0.07, 0.17, 0.41, 0.69, 1.20, and 1.48 g force, respectively).
# Prior to testing, each animal was placed in a suspended clear plastic chamber with a wire mesh bottom and acclimated for 15 minutes. Testing was initiated with the 0.07 g (handle marking of 2.83) applied perpendicularly to the plantar surface of the affected hind paw; each filament was applied with enough pressure to cause a buckle effect. The absence of a paw lifting/withdrawal response after 6 s prompted the use of the next higher weight filament. Paw withdrawal, indicating a positive response, prompted the use of a weaker filament. After the initial positive response (i.e., paw withdrawal), the testing continued for four additional measurements, and was used to calculate the response threshold. Four consecutive positive responses received a score of 0.001 g, and five consecutive negative responses (i.e., no paw withdrawal) received a score of 1.5 g.
# Analyses for Tactile Allodynia Testing. The 50% paw withdrawal threshold was calculated (PWT; Luo and Calcutt, J. Pharmacology Experimental Therapeutics, 303(3), (2002), 1199-1205; Chaplan et al. Journal of Neuroscience Methods, 53, (1994), 55-63) using the formula: 10(Xf+κδ)/10,000 where Xf is the final von Frey filament used (log units), κ is a value that analyzes the response pattern (taken from the table published by Chaplan et al., 1994), and δ is the mean difference between stimuli (log units).
# Except for the mode of administration, number of mice/group and the number of injections and amount of compound per injection, the rest of the study was done in the same manner (in regards to the surgeries and tactile allodynia testing and analysis) as Experiment 110. 3.2 mg of each of the MMP inhibitors #5 and #118 were dissolved in 320 microliters of DMSO. To the solution was then added 32 microliters of Tween 80, followed by 2850 microliters of phosphate buffered saline (PBS). This gave a final concentration of 10% DMSO, 1% Tween and 1 mg/ml compound. […]
# MMP-12 = MMP-12 (Homo sapiens, UniProt P39900); conditions: cited from earlier work
# MMP-2 = target: T1, MMP-2 (Homo sapiens, UniProt P08253); conditions: cited from earlier work
# T1 sequence (P08253 110-660): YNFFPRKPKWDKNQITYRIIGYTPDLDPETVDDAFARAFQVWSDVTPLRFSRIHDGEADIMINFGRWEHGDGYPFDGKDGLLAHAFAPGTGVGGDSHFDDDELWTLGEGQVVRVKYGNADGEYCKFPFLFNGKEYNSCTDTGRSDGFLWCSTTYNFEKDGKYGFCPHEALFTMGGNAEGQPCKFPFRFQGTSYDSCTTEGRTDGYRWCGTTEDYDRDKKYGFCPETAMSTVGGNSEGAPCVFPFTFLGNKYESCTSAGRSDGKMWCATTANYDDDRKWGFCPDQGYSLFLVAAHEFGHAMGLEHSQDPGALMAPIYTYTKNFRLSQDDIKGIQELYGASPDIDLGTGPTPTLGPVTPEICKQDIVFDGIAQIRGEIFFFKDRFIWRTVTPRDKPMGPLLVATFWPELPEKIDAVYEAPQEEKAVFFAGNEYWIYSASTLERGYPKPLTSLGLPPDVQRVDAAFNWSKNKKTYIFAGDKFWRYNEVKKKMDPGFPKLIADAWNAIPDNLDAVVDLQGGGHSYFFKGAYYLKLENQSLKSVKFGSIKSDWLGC
# MMP-8 = MMP-8 (Homo sapiens, UniProt P22894); conditions: cited from earlier work
# MMP-13 = MMP-13 (Homo sapiens, UniProt P45452); conditions: cited from earlier work
# MMP-9 = MMP-9 (Homo sapiens, UniProt P14780); conditions: cited from earlier work
# MMP-3 = MMP-3 (Homo sapiens, UniProt P08254); conditions: cited from earlier work
# MMP-7 = target: T2, MMP-7 (Homo sapiens, UniProt P09237); conditions: cited from earlier work
# T2 sequence (P09237 95-267): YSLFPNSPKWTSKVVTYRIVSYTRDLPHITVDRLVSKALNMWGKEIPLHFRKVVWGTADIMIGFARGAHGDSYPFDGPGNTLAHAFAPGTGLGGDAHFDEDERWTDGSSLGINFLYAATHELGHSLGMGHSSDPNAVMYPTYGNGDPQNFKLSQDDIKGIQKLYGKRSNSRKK
# rat formalin test = conditions: cited from earlier work
# humans = humans (S-3304: animals or man); cited from earlier work
# [5] = i.p. 100 μl/mouse daily (approx. 3.3 mg/Kg), day 1-5
# Sequence of MMP-3 (P08254 100-477, species assumed): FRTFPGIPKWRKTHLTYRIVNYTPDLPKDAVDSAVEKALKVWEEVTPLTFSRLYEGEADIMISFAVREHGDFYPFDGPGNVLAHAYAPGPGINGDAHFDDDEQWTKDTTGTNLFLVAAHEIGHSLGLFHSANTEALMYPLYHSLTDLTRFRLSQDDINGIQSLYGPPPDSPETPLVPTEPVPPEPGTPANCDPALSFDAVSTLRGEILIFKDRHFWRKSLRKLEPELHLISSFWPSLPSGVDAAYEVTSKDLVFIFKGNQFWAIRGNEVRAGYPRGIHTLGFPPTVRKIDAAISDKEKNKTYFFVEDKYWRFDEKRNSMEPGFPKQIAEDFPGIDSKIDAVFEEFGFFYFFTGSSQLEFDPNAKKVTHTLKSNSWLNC
# Sequence of MMP-8 (P22894 101-467, species assumed): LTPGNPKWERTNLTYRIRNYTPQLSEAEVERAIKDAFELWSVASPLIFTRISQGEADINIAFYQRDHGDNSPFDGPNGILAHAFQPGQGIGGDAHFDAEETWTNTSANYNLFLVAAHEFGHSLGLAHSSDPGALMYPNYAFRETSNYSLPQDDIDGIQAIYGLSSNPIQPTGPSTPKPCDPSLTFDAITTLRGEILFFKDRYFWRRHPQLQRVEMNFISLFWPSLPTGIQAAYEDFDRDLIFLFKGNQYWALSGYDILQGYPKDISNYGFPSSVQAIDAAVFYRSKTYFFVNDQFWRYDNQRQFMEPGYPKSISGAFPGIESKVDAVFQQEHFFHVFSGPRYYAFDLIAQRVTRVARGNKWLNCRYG
# Sequence of MMP-9 (P14780 94-707, species assumed): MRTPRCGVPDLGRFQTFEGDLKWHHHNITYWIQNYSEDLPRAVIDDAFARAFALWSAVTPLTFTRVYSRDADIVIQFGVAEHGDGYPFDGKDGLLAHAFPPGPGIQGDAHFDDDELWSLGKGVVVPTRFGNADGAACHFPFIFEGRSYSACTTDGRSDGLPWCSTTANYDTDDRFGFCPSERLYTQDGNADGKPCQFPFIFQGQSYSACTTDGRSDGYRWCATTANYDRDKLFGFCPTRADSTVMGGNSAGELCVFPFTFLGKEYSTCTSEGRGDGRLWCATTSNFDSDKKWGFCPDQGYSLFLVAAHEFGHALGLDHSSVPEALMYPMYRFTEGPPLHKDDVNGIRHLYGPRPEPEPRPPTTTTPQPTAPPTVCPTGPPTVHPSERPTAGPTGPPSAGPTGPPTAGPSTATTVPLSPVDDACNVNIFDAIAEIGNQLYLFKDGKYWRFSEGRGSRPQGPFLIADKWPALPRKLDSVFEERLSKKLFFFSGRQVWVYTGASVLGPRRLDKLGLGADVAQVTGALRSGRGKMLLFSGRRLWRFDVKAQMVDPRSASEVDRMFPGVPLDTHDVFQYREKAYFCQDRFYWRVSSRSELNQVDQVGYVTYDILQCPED
# Sequence of MMP-12 (P39900 106-470, species assumed): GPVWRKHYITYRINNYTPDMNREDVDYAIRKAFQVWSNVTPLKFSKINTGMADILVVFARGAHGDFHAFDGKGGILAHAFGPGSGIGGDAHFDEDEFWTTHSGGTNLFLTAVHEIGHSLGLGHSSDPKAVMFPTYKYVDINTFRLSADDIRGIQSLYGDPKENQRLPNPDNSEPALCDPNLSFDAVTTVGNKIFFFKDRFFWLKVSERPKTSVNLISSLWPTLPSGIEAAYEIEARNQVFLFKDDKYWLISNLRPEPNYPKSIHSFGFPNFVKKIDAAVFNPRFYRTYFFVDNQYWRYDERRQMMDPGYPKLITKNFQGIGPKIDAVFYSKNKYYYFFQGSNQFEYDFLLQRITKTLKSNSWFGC
molecule,measurement,setting,value
TIMP-1: endogenous matrix metalloproteinase inhibitor,Effect on neuropathic pain in the SNL model,[1],suppressed neuropathic pain
CNC(=O)[C@H](Cc1c[nH]c2ccccc12)NC(=O)[C@@H](CC(=O)NO)CC(C)C [GM6001],Effect on mechanical nociception,mechanical nociception,attenuate mechanical nociception
"[2H]C([2H])([2H])c1ccc(C#Cc2ccc(S(=O)(=O)N[C@H](Cc3c[nH]c4ccccc34)C(=O)O)s2)cc1 [Compound 118, (R)-3-(1H-Indol-3-yl)-2-[5-(4-trideuteromethyl-phenylethynyl)-thiophene-2-sulfonylamino]-propionic acid-(D3, 98%)]",% Mean Remaining Parent with NADPH (%),[2]; with NADPH,85%
same,% Mean Remaining Parent without NADPH (%),[2]; without NADPH (control),91%
same,"Paw withdrawal threshold, mean, Day 5",[3]; i.t. 10 μl/mouse daily day 1-6,0.320 grams
same,"Paw withdrawal threshold, mean, Day 7",[3]; i.t. 10 μl/mouse daily day 1-6,1.024 grams
same,"Paw withdrawal threshold, mean, Day 1","[3]; i.t. 10 μl/mouse daily day 1-6, testing 2 hr after first i.t. injection",0.321 grams
same,Reversal of allodynia,"[3]; i.t. administration, as compared to vehicle and compound #5",almost complete reversal of allodynia
same,"Paw withdrawal threshold, mean, Day 0 Postoperative Baseline","[3]; i.t. study, post operative injury baseline, before treatment",0.077 grams
same,"Paw withdrawal threshold, mean, Day(-2) Pre-operative Baseline","[3]; i.t. study, testing prior to SNL injury, before treatment",1.268 grams
same,"Paw withdrawal threshold, mean, Day 1",[4]; [5],0.170 grams
same,"Paw withdrawal threshold, mean, Day 2",[4]; [5],0.350 grams
same,"Paw withdrawal threshold, mean, Day 5",[4]; [5],1.470 grams
same,"Paw withdrawal threshold, mean, Day 6",[4]; [5],0.867 grams
same,"Paw withdrawal threshold, mean, Day 7",[4]; [5],0.250 grams
same,Reversal of mechanical allodynia,"[4]; i.p. administration, by day 5",complete reversal of mechanical alodynia
same,"Paw withdrawal threshold, mean, Day 0 Postoperative Baseline","[4]; i.p. study, baseline before treatment",0.096 grams
CCOCOC[C@H](C[C@H](C)C(=O)NO)NC(=O)c1ccc(Oc2ccccc2)cc1 [ONO-4817],Ki,MMP-12,0.45 nM
same,Ki,MMP-2,0.73 nM
same,Ki,MMP-8,1.1 nM
same,Ki,MMP-13,1.1 nM
same,Ki,MMP-9,2.1 nM
same,Ki,MMP-3,42 nM
same,Ki,MMP-7,2500 nM
same,Effect on the analgesic effect of intrathecal MMP-2 (Phase I agitation behavior),rat formalin test; MMP-2 injected intrathecally,antagonized
same,Effect on the rat formalin test when given alone,rat formalin test; inhibitor given alone,no affect
CNC(=O)[C@@H](NC(=O)[C@H](CC(C)C)[C@H](O)C(=O)NO)C(C)(C)C [Marimastat],Musculoskeletal toxicities,humans,"time-dependent and dose-dependent musculoskeletal toxicities (arthralgia, myalgia, tendinitis)"
